Data on five substances can be found in US6429287B1, “Isolated molecules which complex with HLA-Cw*16 molecules, and uses thereof” (Ludwig Institute for Cancer Research, priority 1996, dated 2002).

Assay [1] concerns HLA-Cw*1601 positive lymphoblastoid cell line, i.e., LB678-EBV. The experiment in a line: 51Cr release assay: peptide-stimulated lysis by CTLs. Format: cell-based, human. The conditions noted are these: for ability of the peptide to stimulate lysis by CTLs: 51Cr labelled LB678-EBV target cells, peptide 15 minutes at room temperature, CTLs added, 51Cr release after four hours at 37° C. On the procedure:
Based upon this hypothesis, a series of peptides were constructed, and lyophilized prior to testing. The lyophilized peptides were dissolved in 1 volume of DMSO, then 9 volumes of H2O, plus 10 mM of acetic acid. The thus diluted peptides were stored at −20° C.
The ability of the peptides to stimulate lysis by CTLs was tested via the ^51Cr release method of Boon et al., J. Exp. Med. 152: 1184-1193 (1980). Specifically, an HLA-Cw*1601 positive lymphoblastoid cell line, i.e., LB678-EBV was ^51Cr labelled for one hour at 37° C., and washed extensively. Then 1000 of these target cells were incubated in 96 well microplates, in the presence of various concentrations of peptide, for 15 minutes, at room temperature. CTLs were then added, and ^51Cr release was measured after four hours, at 37° C.

A further assay addresses HLA-Cw*1601 (Homo sapiens, UniProt P10321, /M331V/P208H/P217L/Q277E/Q291P/R121W/S123Y/S297R/S48A/T329A/T363A/V319A). The conditions noted are these: disclosed in earlier applications Ser. No. 08/79,110 and 08/196,630; cited from earlier work.

Ends that are not written are not given here.

With “amino acids 1-9 of SEQ ID NO: 5: peptide consisting of amino acids 1-9 of SEQ ID NO: 5 (KISGGPRIS)”, the “ability of the peptide to stimulate lysis by CTLs” value (from here on “ability of the peptide”) in assay [1] is listed as “neither one stimulated lysis”. “amino acids 3-10 of SEQ ID NO: 5: peptide consisting of amino acids 3-10 of SEQ ID NO: 5 (SGGPRISY)”: in assay [1], the “ability of the peptide” value is given as “neither one stimulated lysis”.

As for “amino acids 2-10 of SEQ ID NO: 5: nonamer consisting of amino acids 2-10 of SEQ ID NO: 5 (ISGGPRISY)”, in assay [1] (51Cr release, LB678-EBV target cells, CTLs, four hours at 37° C., FIG. 3, read-out: peptide concentration achieving half maximal lysis), the EC50 stood at 30 nM.

As for “AARAVFLAL [SEQ ID NO: 1, preferred BAGE-derived nonapeptide of earlier applications]”, in the assay with HLA-Cw*1601, the “complexes with HLA-Cw*1601 and stimulates CTL 82/82” value was “stimulating the cell line CTL 82/82”. In the case of “KISGGPRISYPL [SEQ ID NO: 5, corresponds to amino acids 126-137 of MAGE-6]”, the “ability of the peptide” value in assay [1] is “Lysis first occurred”.
